Results from publication PMC4812366, “3,1-Benzothiazines, 1,4-Benzodioxines and 1,4-Benzoxazines as Inhibitors of Matriptase-2: Outcome of a Focused Screening Approach” (Pharmaceuticals, 2016).
Where two headings read alike, the source gives them in different places.

What was measured:
human matriptase-2 [1] = target: T1, human matriptase-2 (Homo sapiens, UniProt Q8IU80); test: Human matriptase-2 inhibition, fluorogenic substrate Boc-Gln-Ala-Arg-AMC, conditioned medium of HEK-MT2 cells; format: biochemical; conditions: for matriptase-2 inhibitory activity in words: screening at single inhibitor concentration of 40 µM; for IC50: substrate 40 µM, pH 8.0, 37 °C
T1 construct: The conditioned medium of HEK-MT2 cells was used as a source of matriptase-2 activity; expressed in transfected cells; host or cells: HEK-MT2 cells (conditioned medium, collected and concentrated)
T1 sequence (Q8IU80 577-811 limits assumed): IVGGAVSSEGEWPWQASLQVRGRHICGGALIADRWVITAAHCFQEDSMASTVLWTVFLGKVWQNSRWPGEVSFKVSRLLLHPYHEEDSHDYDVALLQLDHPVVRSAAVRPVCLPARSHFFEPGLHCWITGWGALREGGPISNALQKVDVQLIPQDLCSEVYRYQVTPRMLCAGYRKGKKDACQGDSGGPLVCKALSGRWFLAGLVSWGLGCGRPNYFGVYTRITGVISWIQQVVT
T1 sequence (Q8IU80 438-576 partner limits assumed): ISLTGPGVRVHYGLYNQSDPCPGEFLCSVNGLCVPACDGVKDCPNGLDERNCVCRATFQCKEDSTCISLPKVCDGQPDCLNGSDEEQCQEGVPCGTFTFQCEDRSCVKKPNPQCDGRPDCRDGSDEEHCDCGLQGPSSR
Protocol: The conditioned medium of HEK-MT2 cells was used as a source of matriptase-2 activity and assay conditions were as follows. Assay buffer was 50 mM Tris–HCl, 150 mM NaCl, pH 8.0. The conditioned medium was collected and concentrated, and aliquots of the supernatant were stored at −20 °C. After thawing, it was diluted with assay buffer (1:10 or 1:20 depending on the enzyme activity) and kept at 0 °C not longer than 8 h. The assays were performed at a FLUOstar OPTIMA PlateReader (BMG Labtech, Ortenberg, Germany). A 10 mM stock solution of the fluorogenic substrate Boc-Gln-Ala-Arg-AMC (Bachem, Bubendorf, Switzerland) in DMSO was diluted with assay buffer. The final concentration of the substrate was 40 µM and of DMSO was 6%. The substrate concentration of 40 µM refers to 1.24 × Km. Into each well containing 163.8 µL buffer, 11.2 µL of an inhibitor solution in DMSO and 10 µL of a substrate solution (800 µM) were added and thoroughly mixed. At 37 °C the reaction was initiated by adding 15 µL of diluted conditioned medium and followed over 400 s. All measurements were performed in duplicate with a single inhibitor concentration of 40 µM. Active inhibitors were investigated in duplicate with five different concentrations. Benzamidine hydrochloride was purchased from Acros Organics (Geel, Belgium).
Progress curves were analyzed by linear regression. IC50 values were determined by nonlinear regression using the equation vs = v0/(1 + [I]/IC50), where vs is the steady-state rate, v0 is the rate in the absence of the inhibitor, and [I] is the inhibitor concentration. Standard errors of the mean (SEM) values refer to this nonlinear regression.

thrombin = conditions: cited from earlier work; for thrombin inhibition relative to trypsin and factor Xa, in words: ref [39],[41]
human matriptase-2 [2] = target: T1, human matriptase-2; test: Human matriptase-2 inhibition, fluorogenic substrate Boc-Gln-Ala-Arg-AMC, conditioned medium of HEK-MT2 cells; format: biochemical; conditions: substrate concentrations of 20, 30, 40, 50 and 60 µM
[3] = read-out: IC50 value for matriptase-2 inhibition
[4] = Table 2, 2,3-dihydro-1,4-benzodioxines and 3,4-dihydro-2H-1,4-benzoxazines, values with SEM: duplicate, five inhibitor concentrations, limits: duplicate, single inhibitor concentration of 40 µM, read-out: IC50 (µM) ± SEM
[5] = Table 1, 4H-3,1-benzothiazin-4-ones, values with SEM: duplicate, five inhibitor concentrations, limits: duplicate, single inhibitor concentration of 40 µM, read-out: IC50 (µM) ± SEM

Row | SMILES | matriptase-2 inhibitory activity in words (human matriptase-2 [1]) | IC50 (human matriptase-2 [1]; [4]) | IC50 (human matriptase-2 [1]; [5]) | other results
1 | N=C(N)c1ccccc1 [Benzamidine, reference compound] | lack of inhibitory activity | – | – | IC50 (human matriptase-2 [1]; [3]): > 400 µM
2 | COc1ccc2cc(S(=O)(=O)NN(Cc3cccc(C(=N)N)c3)C(=O)N(C)C3CCCC3)ccc2c1 [Compound 25] | inactive | > 40 µM | – | –
3 | N=C(N)c1ccc(OC[C@H]2COc3cc(N(Cc4ccccc4)C(=O)C(=O)O)ccc3O2)cc1 [(S)-11] | – | 29.8 ± 1.6 µM | – | –
4 | CCOC(=O)C(=O)N(Cc1ccccc1)c1ccc2c(c1)O[C@@H](COc1ccc(C(=N)N)cc1)CO2 [(S)-12, (S)-Ethyl 2-(benzyl(3-((4-carbamidoylphenoxy)methyl)-2,3-dihydrobenzo[b][1,4]dioxin-6-yl)amino)-2-oxoacetate] | – | 8.47 ± 0.76 µM | – | IC50 (human matriptase-2 [1]; [3]): < 10 µM; thrombin inhibition in words (thrombin; ref [38]): highly potent
5 | CCOC(=O)C1CCN(c2ccc(N3C[C@@H](CNCc4ccc(C(=N)N)cc4)OC3=O)cc2)CC1 [(R)-24] | inactive | > 40 µM | – | –
6 | N=C(N)c1ccc(OC[C@@H]2COc3ccc(N(Cc4ccccc4)C(=O)C(=O)O)cc3O2)cc1 [(R)-10] | – | 27.3 ± 2 µM | – | –
7 | N=C(N)c1ccc(OC[C@H]2COc3ccc(N(Cc4ccccc4)C(=O)C(=O)O)cc3O2)cc1 [(S)-10] | – | 16.7 ± 1.7 µM | – | –
8 | CN1CC(C)(COc2ccc(C(=N)N)cc2)Oc2cc(N(Cc3ccc(F)cc3)C(=O)C(=O)O)ccc21 (stereo not shown) [Compound 13] | inactive | > 40 µM | – | thrombin inhibition relative to trypsin and factor Xa, in words (thrombin): inhibited thrombin better than trypsin and factor Xa; thrombin inhibition in words (thrombin; ref [39]): highly active
9 | CCOC(=O)[C@H](CNC(=O)CN1C(=O)COc2cc(NC(=O)c3ccc(C(=N)N)cc3)ccc21)NS(=O)(=O)c1ccc(C)cc1 [Compound 23] | – | 20.5 ± 2 µM | – | –
10 | CN1CC(C)(COc2ccc(C(=N)N)cc2)Oc2ccc(N(CC(=O)O)Cc3ccc(F)cc3)cc21 (stereo not shown) [Compound 17] | – | 11.2 ± 1.61 µM | – | –
11 | N=C(N)c1ccc(OC[C@@H]2COc3cc(N(Cc4ccccc4)C(=O)C(=O)O)ccc3O2)cc1 [(R)-11] | – | 33.6 ± 1.1 µM | – | –
12 | CN1CC(C)(COc2ccc(C(=N)N)cc2)Oc2cc(N(CC(=O)O)Cc3ccc(F)cc3)ccc21 (stereo not shown) [Compound 16] | – | 13.6 ± 2.31 µM | – | thrombin inhibition relative to trypsin and factor Xa, in words (thrombin): inhibited thrombin better than trypsin and factor Xa
13 | CN1CC(C)(COc2ccc(C(=N)N)cc2)Oc2cc(NC(=O)CCC(=O)O)ccc21 (stereo not shown) [Compound 19] | moderately active | 38.8 ± 3.14 µM | – | type of inhibition (Lineweaver-Burk plot) (human matriptase-2 [2]): mixed type of inhibition
14 | CN1CC(C)(COc2ccc(C(=N)N)cc2)Oc2cc(N(CC(=O)O)Cc3cc(F)cc(F)c3)ccc21 (stereo not shown) [Compound 15] | – | 25.8 ± 4 µM | – | thrombin inhibition relative to trypsin and factor Xa, in words (thrombin): inhibited thrombin better than trypsin and factor Xa
15 | CCOC(=O)CN(Cc1ccc(F)cc1)c1ccc2c(c1)OC(C)(COc1ccc(C(=N)N)cc1)CN2C (stereo not shown) [Compound 18] | – | 31.6 ± 2.69 µM | – | –
16 | CN1CC(C)(COc2ccc(C(=N)N)cc2)Oc2ccc(N(Cc3cc(F)cc(F)c3)C(=O)C(=O)O)cc21 (stereo not shown) [Compound 14] | – | 35.8 ± 1.1 µM | – | –

Now from value to compound, other results behind:

Row | matriptase-2 inhibitory activity in words (human matriptase-2 [1]) | IC50 (human matriptase-2 [1]; [4]) | IC50 (human matriptase-2 [1]; [5]) | SMILES | other results
17 | inactive | – | > 160 µM | CN1CCN(C(=O)c2ccc(C(=O)Nc3nc4ccccc4c(=O)s3)cc2)CC1 [Compound 8] | –
18 | inactive | – | > 160 µM | O=C(Nc1nc2ccccc2c(=O)s1)c1ccc(C(=O)N2CCN(Cc3ccccc3)CC2)cc1 [Compound 9] | –
19 | – | – | > 160 µM | O=C(Nc1nc2cc(C(=O)N3CCN(Cc4ccccc4)CC3)ccc2c(=O)s1)c1ccccc1 [Compound 6] | –
20 | – | 30.9 ± 3.4 µM | – | N=C(N)c1ccc(CN2C(=O)COc3cc(NC(=O)[C@H](N)Cc4ccccc4)ccc32)cc1 [Compound 22] | –
21 | – | – | > 160 µM | CN1CCN(C(=O)c2ccc3nc(NC(=O)c4ccccc4)sc(=O)c3c2)CC1 [Compound 3] | –
22 | – | – | > 160 µM | CN1CCN(C(=O)c2ccc3c(=O)sc(NC(=O)c4ccccc4)nc3c2)CC1 [Compound 4] | –
23 | – | – | 148 ± 28 µM | CN(C)CCNC(=O)c1ccc2nc(NC(=O)c3ccccc3)sc(=O)c2c1 [Compound 1] | –
24 | inactive | – | > 160 µM | O=C(Nc1nc2ccc(C(=O)N3CCN(Cc4ccccc4)CC3)cc2c(=O)s1)c1ccccc1 [Compound 5] | –
25 | – | 42.6 ± 4.7 µM | – | CN1C(=O)C(OCc2ccc(C(=N)N)cc2)Oc2cc(C(=O)Nc3ccccc3)ccc21 (stereo not shown) [Compound 21] | –
26 | loss of activity | – | > 160 µM | CN(C)CCNC(=O)c1ccc2c(=O)sc(NC(=O)c3ccccc3)nc2c1 [Compound 2] | –
27 | active | – | 119 ± 9 µM | NCc1ccc(C(=O)Nc2nc3ccccc3c(=O)s2)cc1 [Compound 7] | –
28 | moderately active | 31.4 ± 3.6 µM | – | COC(=O)C(Cc1ccccc1)C(=O)Nc1ccc2c(c1)OC(C)(COc1ccc(C(=N)N)cc1)CN2C (stereo not shown) [Compound 20] | –
